Measured values as given in publication PMC5513037, “Examining the influence of specificity ligands and ATP-competitive ligands on the overall effectiveness of bivalent kinase inhibitors” (Proteome Science, 2017).

Assays:
Assay in all cases: KAM-matrix competition in K562 lysate;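 as to 0.001 uM KAM: median log10 fold change of treatment over DMSO control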;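 as to 0.01 uM KAM: median log10 fold change of treatment over DMSO control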;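 as to 0.1 uM KAM: median log10 fold change of treatment over DMSO control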;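 as to 1 uM KAM: median log10 fold change of treatment over DMSO control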;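 as to 10 uM KAM: median log10 fold change of treatment over DMSO control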
Type in all cases: binding
CDK2 = target: T1, CDK2 (Homo sapiens, UniProt P24941)
T1 construct: endogenous in cells; host or cells: K562
Protocol: (§1) Supplement 12953_2017_125_MOESM1_ESM.zip/MS_Supp Info.xlsx, sheet "KAM" | column: 10 uM KAM; 1 uM KAM; 0.1 uM KAM; 0.01 uM KAM; 0.001 uM KAM; RB50

CDK5 = target: T2, CDK5 (Homo sapiens, UniProt Q00535)
T2 construct: endogenous in cells; host or cells: K562
T2 sequence (Q00535 whole entry): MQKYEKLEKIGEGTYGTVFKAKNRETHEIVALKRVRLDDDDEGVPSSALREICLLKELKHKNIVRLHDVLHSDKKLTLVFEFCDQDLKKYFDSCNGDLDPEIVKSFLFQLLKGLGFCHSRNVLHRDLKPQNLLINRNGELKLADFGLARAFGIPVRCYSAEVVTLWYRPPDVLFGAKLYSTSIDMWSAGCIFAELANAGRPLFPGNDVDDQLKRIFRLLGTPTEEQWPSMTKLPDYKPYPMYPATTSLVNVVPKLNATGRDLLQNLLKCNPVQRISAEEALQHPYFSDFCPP
Protocol: as §1

DAPK1 = target: T3, DAPK1 (Homo sapiens, UniProt P53355);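 as to 0.001 uM KAM: median log10 fold change of treatment over DMSO control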;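 as to 0.01 uM KAM: median log10 fold change of treatment over DMSO control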;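 as to 0.1 uM KAM: median log10 fold change of treatment over DMSO control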;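 as to 1 uM KAM: median log10 fold change of treatment over DMSO control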;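 as to 10 uM KAM: median log10 fold change of treatment over DMSO control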
T3 construct: endogenous in cells; host or cells: K562
Protocol: as §1

JAK1 = target: T4, JAK1 (Homo sapiens, UniProt P23458)
T4 construct: endogenous in cells; host or cells: K562
T4 sequence (P23458 whole entry): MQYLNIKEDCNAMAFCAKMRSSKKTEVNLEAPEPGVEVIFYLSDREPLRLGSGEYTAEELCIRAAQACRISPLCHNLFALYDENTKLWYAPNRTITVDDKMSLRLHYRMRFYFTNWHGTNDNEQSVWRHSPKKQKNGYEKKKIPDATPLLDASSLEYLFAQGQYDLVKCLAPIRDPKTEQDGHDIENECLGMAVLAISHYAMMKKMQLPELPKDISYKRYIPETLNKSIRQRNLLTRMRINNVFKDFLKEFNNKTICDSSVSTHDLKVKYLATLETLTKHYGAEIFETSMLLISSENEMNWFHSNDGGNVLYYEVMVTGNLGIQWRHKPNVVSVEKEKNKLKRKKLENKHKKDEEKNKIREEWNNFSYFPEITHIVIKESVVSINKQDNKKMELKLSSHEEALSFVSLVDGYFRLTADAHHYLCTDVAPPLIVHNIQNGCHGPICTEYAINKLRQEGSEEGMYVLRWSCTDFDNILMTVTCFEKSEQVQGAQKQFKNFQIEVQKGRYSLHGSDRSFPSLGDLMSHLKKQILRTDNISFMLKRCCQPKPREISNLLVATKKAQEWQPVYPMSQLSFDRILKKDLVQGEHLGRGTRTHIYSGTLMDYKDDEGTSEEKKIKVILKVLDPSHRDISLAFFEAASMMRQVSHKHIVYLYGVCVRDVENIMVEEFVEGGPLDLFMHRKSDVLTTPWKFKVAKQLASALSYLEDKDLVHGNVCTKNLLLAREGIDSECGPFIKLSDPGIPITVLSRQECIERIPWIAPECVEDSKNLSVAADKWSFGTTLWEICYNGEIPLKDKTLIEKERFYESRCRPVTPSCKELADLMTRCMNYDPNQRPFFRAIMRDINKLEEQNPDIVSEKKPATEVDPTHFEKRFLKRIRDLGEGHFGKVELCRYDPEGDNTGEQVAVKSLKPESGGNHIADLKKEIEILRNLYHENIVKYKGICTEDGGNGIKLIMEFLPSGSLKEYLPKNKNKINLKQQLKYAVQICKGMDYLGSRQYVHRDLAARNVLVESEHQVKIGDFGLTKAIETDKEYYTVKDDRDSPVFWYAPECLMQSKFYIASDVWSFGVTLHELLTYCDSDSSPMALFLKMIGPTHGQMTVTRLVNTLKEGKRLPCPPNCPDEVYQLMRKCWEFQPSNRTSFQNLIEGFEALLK
Protocol: as §1

LIMK2 = target: T5, LIMK2 (Homo sapiens, UniProt P53671);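 as to 0.001 uM KAM: median log10 fold change of treatment over DMSO control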;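 as to 0.01 uM KAM: median log10 fold change of treatment over DMSO control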;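 as to 0.1 uM KAM: median log10 fold change of treatment over DMSO control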;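 as to 1 uM KAM: median log10 fold change of treatment over DMSO control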;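 as to 10 uM KAM: median log10 fold change of treatment over DMSO control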
T5 construct: endogenous in cells; host or cells: K562
T5 sequence (P53671 whole entry): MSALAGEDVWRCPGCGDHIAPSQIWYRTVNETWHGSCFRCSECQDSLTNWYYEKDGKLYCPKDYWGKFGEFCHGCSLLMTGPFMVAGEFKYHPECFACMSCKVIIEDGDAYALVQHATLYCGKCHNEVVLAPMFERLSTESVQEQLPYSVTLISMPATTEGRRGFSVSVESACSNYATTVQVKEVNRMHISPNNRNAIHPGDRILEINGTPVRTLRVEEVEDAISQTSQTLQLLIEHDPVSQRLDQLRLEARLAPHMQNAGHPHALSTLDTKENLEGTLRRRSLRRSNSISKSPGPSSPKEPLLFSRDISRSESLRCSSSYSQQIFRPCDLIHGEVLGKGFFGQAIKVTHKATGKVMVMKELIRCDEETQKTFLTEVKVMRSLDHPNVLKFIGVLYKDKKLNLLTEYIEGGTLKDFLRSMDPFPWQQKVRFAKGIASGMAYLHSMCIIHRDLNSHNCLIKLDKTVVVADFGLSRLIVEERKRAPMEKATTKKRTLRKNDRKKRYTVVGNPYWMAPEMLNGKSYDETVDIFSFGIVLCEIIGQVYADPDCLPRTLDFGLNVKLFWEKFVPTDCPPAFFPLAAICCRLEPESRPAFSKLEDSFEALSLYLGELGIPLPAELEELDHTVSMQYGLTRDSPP
Protocol: as §1

PBK = target: T6, PBK (Homo sapiens, UniProt Q96KB5);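 as to 0.001 uM KAM: median log10 fold change of treatment over DMSO control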;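 as to 0.01 uM KAM: median log10 fold change of treatment over DMSO control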;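 as to 0.1 uM KAM: median log10 fold change of treatment over DMSO control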;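 as to 1 uM KAM: median log10 fold change of treatment over DMSO control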;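 as to 10 uM KAM: median log10 fold change of treatment over DMSO control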
T6 construct: endogenous in cells; host or cells: K562
T6 sequence (Q96KB5 1-322): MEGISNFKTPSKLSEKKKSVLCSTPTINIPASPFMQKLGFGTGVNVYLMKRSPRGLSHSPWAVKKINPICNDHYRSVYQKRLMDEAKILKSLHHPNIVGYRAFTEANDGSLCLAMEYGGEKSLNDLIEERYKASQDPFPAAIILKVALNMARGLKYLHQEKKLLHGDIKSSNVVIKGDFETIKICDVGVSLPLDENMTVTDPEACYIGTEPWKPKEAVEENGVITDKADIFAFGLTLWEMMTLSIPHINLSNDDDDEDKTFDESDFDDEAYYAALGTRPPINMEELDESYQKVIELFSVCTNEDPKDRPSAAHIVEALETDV
Protocol: as §1

PIK3R4 = target: T7, PIK3R4 (Homo sapiens, UniProt Q99570);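 as to 0.001 uM KAM: median log10 fold change of treatment over DMSO control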;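 as to 0.01 uM KAM: median log10 fold change of treatment over DMSO control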;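 as to 0.1 uM KAM: median log10 fold change of treatment over DMSO control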;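 as to 1 uM KAM: median log10 fold change of treatment over DMSO control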;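 as to 10 uM KAM: median log10 fold change of treatment over DMSO control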
T7 construct: endogenous in cells; host or cells: K562
T7 sequence (Q99570 2-1358 limits assumed): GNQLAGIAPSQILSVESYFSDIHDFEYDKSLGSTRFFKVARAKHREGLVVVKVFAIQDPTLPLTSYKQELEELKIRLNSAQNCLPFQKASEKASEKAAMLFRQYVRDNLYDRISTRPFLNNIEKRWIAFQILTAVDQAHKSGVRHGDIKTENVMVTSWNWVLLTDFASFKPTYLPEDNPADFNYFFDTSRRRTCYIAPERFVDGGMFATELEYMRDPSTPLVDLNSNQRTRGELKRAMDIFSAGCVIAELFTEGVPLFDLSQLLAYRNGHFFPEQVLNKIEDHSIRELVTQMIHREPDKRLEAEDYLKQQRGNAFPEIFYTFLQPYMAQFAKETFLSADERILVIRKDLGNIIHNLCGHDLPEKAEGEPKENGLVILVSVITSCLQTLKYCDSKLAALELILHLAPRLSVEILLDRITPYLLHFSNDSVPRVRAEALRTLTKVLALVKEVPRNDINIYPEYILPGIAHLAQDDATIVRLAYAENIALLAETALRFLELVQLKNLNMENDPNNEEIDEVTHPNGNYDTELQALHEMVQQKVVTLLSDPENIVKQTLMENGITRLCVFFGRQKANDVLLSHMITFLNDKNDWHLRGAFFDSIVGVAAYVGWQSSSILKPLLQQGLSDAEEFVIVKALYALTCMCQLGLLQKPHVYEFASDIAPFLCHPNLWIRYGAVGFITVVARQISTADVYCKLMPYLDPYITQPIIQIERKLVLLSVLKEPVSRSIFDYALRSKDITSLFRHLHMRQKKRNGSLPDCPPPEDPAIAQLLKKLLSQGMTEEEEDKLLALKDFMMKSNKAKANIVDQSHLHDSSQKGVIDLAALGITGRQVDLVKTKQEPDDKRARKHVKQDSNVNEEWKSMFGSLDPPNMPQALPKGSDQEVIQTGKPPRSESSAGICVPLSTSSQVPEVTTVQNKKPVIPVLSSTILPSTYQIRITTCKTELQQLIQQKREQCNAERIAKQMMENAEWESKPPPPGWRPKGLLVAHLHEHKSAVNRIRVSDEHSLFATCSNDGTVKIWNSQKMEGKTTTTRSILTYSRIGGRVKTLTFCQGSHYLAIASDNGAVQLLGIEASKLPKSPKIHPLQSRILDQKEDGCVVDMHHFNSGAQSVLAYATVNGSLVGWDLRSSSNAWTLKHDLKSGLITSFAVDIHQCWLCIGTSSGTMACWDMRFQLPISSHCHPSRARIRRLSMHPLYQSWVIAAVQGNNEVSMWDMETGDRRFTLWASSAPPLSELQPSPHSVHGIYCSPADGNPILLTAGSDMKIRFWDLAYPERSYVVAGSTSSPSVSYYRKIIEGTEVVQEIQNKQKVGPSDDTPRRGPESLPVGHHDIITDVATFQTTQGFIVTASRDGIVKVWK
T7 sequence (Q8NEB9 whole entry partner): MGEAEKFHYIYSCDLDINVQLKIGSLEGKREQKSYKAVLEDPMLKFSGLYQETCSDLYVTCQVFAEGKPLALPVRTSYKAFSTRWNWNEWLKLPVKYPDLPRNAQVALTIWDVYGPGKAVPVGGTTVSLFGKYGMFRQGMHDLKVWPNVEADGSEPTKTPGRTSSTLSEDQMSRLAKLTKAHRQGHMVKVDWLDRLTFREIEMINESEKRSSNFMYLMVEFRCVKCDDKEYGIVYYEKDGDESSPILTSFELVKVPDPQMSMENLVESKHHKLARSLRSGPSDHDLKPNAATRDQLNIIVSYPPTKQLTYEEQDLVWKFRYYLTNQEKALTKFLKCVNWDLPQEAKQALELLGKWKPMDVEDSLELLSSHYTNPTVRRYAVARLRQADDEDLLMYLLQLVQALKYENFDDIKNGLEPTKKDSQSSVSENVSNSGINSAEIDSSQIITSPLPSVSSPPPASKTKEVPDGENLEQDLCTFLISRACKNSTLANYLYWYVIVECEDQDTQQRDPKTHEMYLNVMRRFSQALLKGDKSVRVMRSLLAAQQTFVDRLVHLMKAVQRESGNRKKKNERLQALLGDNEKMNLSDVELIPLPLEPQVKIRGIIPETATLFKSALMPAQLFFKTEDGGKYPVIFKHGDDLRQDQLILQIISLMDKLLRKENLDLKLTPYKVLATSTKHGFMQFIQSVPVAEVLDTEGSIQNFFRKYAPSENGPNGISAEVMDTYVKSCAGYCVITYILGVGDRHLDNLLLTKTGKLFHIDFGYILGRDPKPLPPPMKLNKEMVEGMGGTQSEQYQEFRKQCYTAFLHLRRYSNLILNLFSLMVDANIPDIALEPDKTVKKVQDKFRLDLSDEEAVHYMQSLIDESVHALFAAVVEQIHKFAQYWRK
Protocol: as §1

RIOK1 = target: T8, RIOK1 (Homo sapiens, UniProt Q9BRS2);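 as to 0.001 uM KAM: median log10 fold change of treatment over DMSO control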;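 as to 0.01 uM KAM: median log10 fold change of treatment over DMSO control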;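 as to 0.1 uM KAM: median log10 fold change of treatment over DMSO control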;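 as to 1 uM KAM: median log10 fold change of treatment over DMSO control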;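 as to 10 uM KAM: median log10 fold change of treatment over DMSO control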
T8 construct: endogenous in cells; host or cells: K562
T8 sequence (Q9BRS2 1-568): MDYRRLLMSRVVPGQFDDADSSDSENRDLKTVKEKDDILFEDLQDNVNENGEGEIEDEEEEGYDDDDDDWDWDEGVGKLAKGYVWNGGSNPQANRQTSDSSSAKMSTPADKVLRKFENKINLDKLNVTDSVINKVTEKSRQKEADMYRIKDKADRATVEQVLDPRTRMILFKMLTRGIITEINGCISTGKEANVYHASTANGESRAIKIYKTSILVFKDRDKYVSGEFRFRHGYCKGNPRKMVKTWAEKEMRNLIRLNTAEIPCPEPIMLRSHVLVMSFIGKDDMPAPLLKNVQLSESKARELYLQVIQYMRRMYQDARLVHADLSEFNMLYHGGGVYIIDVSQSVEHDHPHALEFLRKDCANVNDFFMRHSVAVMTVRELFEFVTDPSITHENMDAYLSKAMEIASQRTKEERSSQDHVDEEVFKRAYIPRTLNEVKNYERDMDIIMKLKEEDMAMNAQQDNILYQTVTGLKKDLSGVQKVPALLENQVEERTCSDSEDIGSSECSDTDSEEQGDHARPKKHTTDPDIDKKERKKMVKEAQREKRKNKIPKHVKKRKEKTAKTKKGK
Protocol: as §1

RIPK2 = target: T9, RIPK2 (Homo sapiens, UniProt O43353)
T9 construct: endogenous in cells; host or cells: K562
T9 sequence (O43353 whole entry): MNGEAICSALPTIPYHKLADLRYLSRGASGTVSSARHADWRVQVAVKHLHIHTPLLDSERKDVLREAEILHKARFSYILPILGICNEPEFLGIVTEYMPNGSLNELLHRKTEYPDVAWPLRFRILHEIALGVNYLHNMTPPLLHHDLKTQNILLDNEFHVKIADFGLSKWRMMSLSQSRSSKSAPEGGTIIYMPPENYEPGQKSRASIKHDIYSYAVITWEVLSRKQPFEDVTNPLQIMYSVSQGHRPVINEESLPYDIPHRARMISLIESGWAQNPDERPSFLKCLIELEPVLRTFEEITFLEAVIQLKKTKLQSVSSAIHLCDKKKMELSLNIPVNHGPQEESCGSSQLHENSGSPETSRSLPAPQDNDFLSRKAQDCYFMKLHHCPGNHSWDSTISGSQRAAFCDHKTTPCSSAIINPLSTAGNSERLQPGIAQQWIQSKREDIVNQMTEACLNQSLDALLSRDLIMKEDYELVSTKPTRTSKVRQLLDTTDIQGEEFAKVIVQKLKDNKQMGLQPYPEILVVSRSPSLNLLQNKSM
Protocol: as §1

STK38 = target: T10, STK38 (Homo sapiens, UniProt Q15208)
T10 construct: endogenous in cells; host or cells: K562
Protocol: as §1

TRRAP = target: T11, TRRAP (Homo sapiens, UniProt Q9Y4A5);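 as to 0.001 uM KAM: median log10 fold change of treatment over DMSO control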;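 as to 0.01 uM KAM: median log10 fold change of treatment over DMSO control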;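 as to 0.1 uM KAM: median log10 fold change of treatment over DMSO control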;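 as to 1 uM KAM: median log10 fold change of treatment over DMSO control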;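 as to 10 uM KAM: median log10 fold change of treatment over DMSO control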
T11 construct: endogenous in cells; host or cells: K562
Protocol: as §1

[1] = read-out: RB50 (the source's name)
[2] = KAM 0.001-10 uM, read-out: RB50 (the source's name)

## N#CCc1ccc(Nc2nc(NCCCN)cc(Nc3cc(C4CC4)[nH]n3)n2)cc1 [KAM]
CDK2; 0.001 uM KAM
  median Log10 fold change: -0.01597
CDK2; 0.01 uM KAM
  median Log10 fold change: -0.009383
CDK2; 0.1 uM KAM
  median Log10 fold change: -0.2687
CDK2; 1 uM KAM
  median Log10 fold change: -0.5288
CDK2; 10 uM KAM
  median Log10 fold change: -0.6805
CDK2; [1]
  IC50: 177 nM
CDK5; 0.001 uM KAM
  median Log10 fold change: 0.003574
CDK5; 0.01 uM KAM
  median Log10 fold change: 0.001841
CDK5; 0.1 uM KAM
  median Log10 fold change: -0.2018
CDK5; 1 uM KAM
  median Log10 fold change: -0.5013
CDK5; 10 uM KAM
  median Log10 fold change: -0.5902
CDK5; [1]
  IC50: 298 nM
DAPK1; [2]
  IC50: > 10000 nM
DAPK1; relative to 0 uM KAM = 0
  0.001 uM KAM: -0.04615
  0.01 uM KAM: 0.02037
  0.1 uM KAM: -0.07451
  1 uM KAM: -0.06277
  10 uM KAM: -0.09328
JAK1; 0.001 uM KAM
  median Log10 fold change: -0.0004094
JAK1; 0.01 uM KAM
  median Log10 fold change: 0.001552
JAK1; 0.1 uM KAM
  median Log10 fold change: -0.1118
JAK1; 1 uM KAM
  median Log10 fold change: -0.4812
JAK1; 10 uM KAM
  median Log10 fold change: -0.5497
JAK1; [1]
  IC50: 518 nM
LIMK2; [2]
  IC50: > 10000 nM
LIMK2; relative to 0 uM KAM = 0
  0.001 uM KAM: -0.04927
  0.01 uM KAM: -0.08611
  0.1 uM KAM: -0.1176
  1 uM KAM: -0.1595
  10 uM KAM: 0.03187
PBK; [2]
  IC50: > 10000 nM
PBK; relative to 0 uM KAM = 0
  0.001 uM KAM: 0.04398
  0.01 uM KAM: 0.009269
  0.1 uM KAM: 0.0383
  1 uM KAM: 0.01738
  10 uM KAM: 0.0482
PIK3R4; [2]
  IC50: > 10000 nM
PIK3R4; relative to 0 uM KAM = 0
  0.001 uM KAM: -0.04609
  0.01 uM KAM: 0.02295
  0.1 uM KAM: -0.02338
  1 uM KAM: -0.03171
  10 uM KAM: -0.01923
RIOK1; [2]
  IC50: > 10000 nM
RIOK1; relative to 0 uM KAM = 0
  0.001 uM KAM: -0.005877
  0.01 uM KAM: -0.06085
  0.1 uM KAM: -0.03934
  1 uM KAM: 0.04921
  10 uM KAM: -0.001737
RIPK2; 0.001 uM KAM
  median Log10 fold change: 0.003964
RIPK2; 0.01 uM KAM
  median Log10 fold change: -0.006424
RIPK2; 0.1 uM KAM
  median Log10 fold change: -0.0711
RIPK2; 1 uM KAM
  median Log10 fold change: -0.241
RIPK2; 10 uM KAM
  median Log10 fold change: -0.4874
RIPK2; [1]
  IC50: 1860 nM
STK38; 0.001 uM KAM
  median Log10 fold change: -0.121
STK38; 0.01 uM KAM
  median Log10 fold change: -0.04373
STK38; 0.1 uM KAM
  median Log10 fold change: -0.1647
STK38; 1 uM KAM
  median Log10 fold change: -0.3238
STK38; 10 uM KAM
  median Log10 fold change: -0.6242
STK38; [1]
  IC50: 752 nM
TRRAP; [2]
  IC50: > 10000 nM
TRRAP; relative to 0 uM KAM = 0
  0.001 uM KAM: -0.07186
  0.01 uM KAM: 0.02458
  0.1 uM KAM: 0.0008026
  1 uM KAM: 0.06144
  10 uM KAM: -0.07955
